{"source": "patent US11413324B2", "about": "“Compositions and methods for treating peripheral nerve disease, disorders, and injuries” (University of Virginia Patent Foundation, priority 2017, dated 2022)", "key": {"peripheral olig2^+ OPCs": {"system": "peripheral olig2^+ OPCs", "test": "Quantification of peripheral olig2+ OPCs at 3 dpf in drug-treated olig2:dsred larvae", "assay_type": "in vivo, zebrafish", "conditions": "for number of peripheral olig2+ OPCs: 24 to 72 hpf; for peripherally migrated OPCs at 3 dpf after neurotransmitter receptor antagonist: compared to control"}, "peripheral olig2^+ cells": {"system": "peripheral olig2^+ cells", "test": "Chemical screen of the LOPAC 1280 library: peripheral olig2+ cells scored in olig2:dsred larvae at 72 hpf", "assay_type": "in vivo, zebrafish", "conditions": "4 μM, 24 to 72 hpf, pilot experiment, positive control"}, "[1]": {"system": "OPC migration through the MEP TZ", "conditions": "10 μM, 24 to 72 hpf, 3 larvae imaged 55 to 72 hpf", "method": "Embryos were anesthetized with 0.01% 3-aminobenzoic acid ester (Tricaine), immersed in 0.8% low-melting point agarose and mounted laterally in glass-bottomed 35 mm petri dishes (Electron Microscopy Sciences). After mounting, the petri dish was filled with egg water containing PTU and Tricaine. For some experiments, chemical compounds were also dissolved in the water. A 25× multi-immersion objective (NA=0.8), 40× oil objective (NA=1.4) and a 40× water objective (NA=1.1) mounted on a motorized Zeiss AxioObserver ZI microscope equipped with a Quorum WaveFX-XI spinning disc confocal system (Quorum Technologies Inc.) were used to capture images. Image processing was performed with MetaMorph and Photoshop to enhance brightness and contrast of images. The Fiji plugin MTrackJ was used to annotate time-lapse movies (Meijering et al., 2012).\nIn order to distinguish OPCs from motor neurons, we used embryos expressing olig2:dsred and sox10:eos, where sox10 regulatory elements drive expression of Eos in central and peripheral glia. […] We treated these embryos with 10 μM of CGS-15943 from 24 to 72 hpf and imaged 3 larvae (10 nerves total) from 55 to 72 hpf."}, "perineurial glia (PG)": {"system": "perineurial glia (PG)", "conditions": "1.25 μm CGS-15943, 36 to 55 hpf"}, "MEP glia": {"system": "MEP glia", "test": "Presence of MEP glia (sox10+/olig2+ cells, wif1 in situ hybridization) on motor nerves", "assay_type": "in vivo, zebrafish", "conditions": "for percentage of motor nerves with sox10+/olig2+ MEP glia at the MEP TZ: 36 to 72 hpf, vs DMSO, p=0.14", "method": "Larvae were fixed in 4% PFA at 4° C. overnight and stored in 100% methanol at −20° C. and processed for in situ RNA hybridization. Plasmids were linearized with appropriate restriction enzymes and cRNA preparation was carried out using Roche DIG-labeling reagents and RNA polymerases (NEB). We used a previously published probe for wif1 (Smith et al., 2014). After in situ hybridization, embryos were embedded in 1.5% agarose/30% sucrose and frozen in 2-methylbutane chilled by immersion in liquid nitrogen. We collected 20 μm transverse sections on microscope slides using a cryostat microtome and covered with 75% glycerol. Images were obtained using a Zeiss AxioObserver inverted microscope using a 40× oil immersion objective. All images were imported into Adobe Photoshop. Adjustments were limited to levels, contrast, and cropping.\nWe therefore sought to determine whether antagonizing the A2a AR lead to ectopic OPC migration simply by perturbing MEP glial development. MEP glia can be identified by the co-expression of sox10:eos and olig2:dsred as well as expression of wnt inhibitory factor 1 (wif1) (Smith et al., 2014)."}, "Eos^+ cells": {"system": "Eos^+ cells", "test": "Number of Eos+ cells (Schwann cells and MEP glia) per motor nerve in sox10:eos larvae", "assay_type": "in vivo, zebrafish", "conditions": "36 to 72 hpf, 72 hpf sox10:eos larvae, p=0.08"}, "[2]": {"system": "peripheral OPCs myelinating spinal motor axons", "test": "gpr126 mutant peripheral neuropathy model: peripheral OPCs and myelination of spinal motor nerves", "assay_type": "in vivo, zebrafish", "excerpt": "This led us to hypothesize that OPCs could be pharmacologically recruited onto peripheral nerves in order to myelinate them. […] However, in these studies, OPCs populated the nerve in the context of genetic mutations resulting in the death or absence of both SCs and MEP glia. Therefore, we wanted to determine if it was possible to recruit OPCs to myelinate peripheral motor nerves in a model more closely resembling human peripheral neuropathies, in which SCs are present, but fail to myelinate. To do this, we used zebrafish harboring a mutation in g protein coupled receptor 126 (gpr126), a model of peripheral neuropathy in which SCs ensheath, but fail to myelinate peripheral nerves (Monk et al., 2009). OLs are present in normal numbers in these mutants, and central myelination is completely normal (Monk et al., 2009).\nTherefore, we tested whether treatment with the A2a AR antagonist would result in peripherally-migrated OPCs ensheathing peripheral spinal motor nerves in these mutants. […] We then performed in vivo, time-lapse imaging on nkx2.2a:megfp;olig2:dsred;gpr126^−/− mutants in order to visualize whether these peripheral OPCs initiated myelination of peripheral nerves. The transgene nkx2.2a:megfp is expressed by pre-myelinating OPCs and enables clear visualization of membrane structures (Kucenas et al., 2008a). No other cells in the spinal cord or at the MEP TZ express both nkx2.2a and olig2, so use of these transgenes allowed us to unambiguously identify membrane sheaths coming from OPCs. […] Thin OPC membrane processes extended toward peripheral motor axons and formed membrane sheaths around them (FIG. 6D). The timing of sheath initiation on peripheral axons coincided with sheath initiation within the spinal cord, and some peripheral sheaths stabilized and elongated during the course of the time-lapse (FIG. 6D). This time-lapse data rules out the possibility that SCH-58261 treatment stimulates SCs to myelinate the nerve, since nkx2.2a^+ OPC processes can be clearly seen ensheathing nerve segments.\nTo examine whether these membrane sheaths were in fact myelin, we treated gpr126 mutants from 36 to 72 hpf with SCH-58261 or DMSO, fixed larvae at 4 dpf, and labeled with an antibody specific to myelin basic protein (MBP) using immunohistochemistry (Kucenas et al., 2009). In mutants treated with DMSO, we observed MBP only on a short segment of the proximal nerve root (FIG. 6E), which is consistent with our previous data showing that differentiated MEP glia express MBP in this region (Smith et al., 2014). […] As further confirmation that peripheral OPCs myelinate spinal motor nerve roots following treatment with SCH-58261, we imaged gpr126^−/− larvae expressing the transgenes mbp:egfp and olig2:dsred from 72 to 86 hpf (n=3) (FIG. 6F). In these time-lapses, we observed olig2^+ OPCs beginning to ensheath peripheral nerves with mbp^+ membrane tubes. Out of 12 nerves imaged, OPCs migrated out of the spinal cord onto 4 nerves, and an additional 3 nerves had OPCs already present at the beginning of the time-lapse. Multiple EGFP^+ membrane tubes extended from single OPCs and ensheathed most of the nerve root on all 7 nerves with OPCs present. These long membrane tubes were consistent with the pattern of MBP antibody labeling on the nerves of SCH-58261-treated mutants (FIG. 6E). Both the MBP antibody and mbp:egfp labeling were closely associated with an olig2^+ cell body, providing further evidence that peripherally-migrated OPCs and not SCs, initiate myelination in gpr126 mutants treated with SCH-58261 (FIGS. 6D&E). From these experiments, we conclude that OPCs can be recruited onto peripheral motor nerves and initiate myelination, even in the presence of MEP glia and SCs."}, "larvae": {"system": "larvae", "test": "Toxicity, death or morphological defects of treated or injected larvae", "conditions": "40 μM, 36 to 72 hpf, n=1 survivor"}, "[3]": {"conditions": "dose responses of selective A1, A2b, A3 antagonists"}, "[4]": {"conditions": "gpr126−/− mbp:egfp;olig2:dsred, imaged 72 to 86 hpf, 12 nerves imaged"}}, "note": "Entries after “also recorded” stand apart in the source; their conditions may differ. Structures can show the parent of a compound that is named as a salt.", "data": [{"smiles": "Cn1c(=O)c2[nH]c(C3CCCC3)nc2n(C)c1=O", "note": "[CPT, 8-cyclopentyltheophylline]", "values": [{"measurement": "number of peripheral olig2+ OPCs", "setting": "peripheral olig2^+ OPCs; [3]", "value": "did not observe peripheral OPCs"}]}, {"smiles": "COc1cc2ncnc(Nc3cccc(Cl)c3)c2cc1OC", "note": "[AG1478]", "values": [{"measurement": "peripheral OPC migration", "setting": "peripheral olig2^+ cells", "value": "robust peripheral OPC migration"}]}, {"smiles": "CCCn1c(=O)c2[nH]c(-c3ccc(OCC(=O)Nc4ccc(C#N)cc4)cc3)nc2n(CCC)c1=O", "note": "[MRS-1754]", "values": [{"measurement": "number of peripheral olig2+ OPCs", "setting": "peripheral olig2^+ OPCs; [3]", "value": "did not observe peripheral OPCs"}]}, {"smiles": "Nc1nc2ccc(Cl)cc2c2nc(-c3ccco3)nn12", "note": "[CGS-15943, 9-Chloro-2-(2-furanyl)-[1,2,4]triazolo[1,5-c]quinazolin-5-amine]", "values": [{"measurement": "OPCs migrating through a single MEP TZ", "setting": "[1]", "value": "≤ 2"}, {"measurement": "nerves on which OPC cell bodies migrated onto peripheral spinal motor nerves during imaging", "setting": "[1]", "value": "6 out of 10"}, {"measurement": "nerves on which OPCs extend membrane processes through the MEP TZ", "setting": "[1]", "value": "9 out of 10"}, {"measurement": "nerves with OPCs already present before 60 hpf", "setting": "[1]", "value": "3 out of 10"}, {"measurement": "nerves with olig2+/sox10− motor neurons in the periphery", "setting": "[1]", "value": "0 out of 10"}, {"measurement": "PG extension from the spinal cord along the motor nerve (mean SEM)", "setting": "perineurial glia (PG); 55 hpf larvae, 10 nerves per larva", "value": "24.94±1.75", "unit": "μm"}, {"measurement": "PG extension compared with DMSO-treated larvae", "setting": "perineurial glia (PG); p=0.28", "value": "no difference in PG extension"}, {"measurement": "number of peripheral olig2+ OPCs", "setting": "peripheral olig2^+ OPCs; doses of 1.25 and 20 μM, p<0.01", "value": "significant peripheral OPC migration"}, {"measurement": "wif1+ MEP glia (in situ hybridization)", "setting": "MEP glia; 1.25 μM", "value": "observed wif1^+ MEP glia; also recorded: have wif1^+ MEP glia"}, {"measurement": "percentage of motor nerves with sox10+/olig2+ MEP glia at the MEP TZ", "setting": "MEP glia; 1.25 μM", "value": "no differences"}]}, {"smiles": "C[C@]12N[C@H](Cc3ccccc31)c1ccccc12", "note": "[MK-801, (5S,10R)-(+)-5-Methyl-10,11-dihydro-5H-dibenzo[a,d]cyclohepten-5,10-imine maleate]", "values": [{"measurement": "peripherally migrated OPCs at 3 dpf after neurotransmitter receptor antagonist", "setting": "peripheral olig2^+ OPCs; 36 to 72 hpf, olig2:dsred", "value": "resulted in peripheral OPC migration"}]}, {"smiles": "NS(=O)(=O)c1cccc2c1c([N+](=O)[O-])cc1[nH]c(=O)c(=O)[nH]c12", "note": "[NBQX, 2,3-Dioxo-6-nitro-1,2,3,4-tetrahydrobenzo[f]quinoxaline-7-sulfonamide]", "values": [{"measurement": "peripherally migrated OPCs at 3 dpf after neurotransmitter receptor antagonist", "setting": "peripheral olig2^+ OPCs; 36 to 72 hpf, olig2:dsred", "value": "significant numbers of peripherally-migrated OPCs"}]}, {"smiles": "Nc1nc2c(cnn2CCc2ccccc2)c2nc(-c3ccco3)nn12", "note": "[SCH-58261, 7-(2-phenylethyl)-5-amino-2-(2-furyl)-pyrazolo-[4,3-e]-1,2,4-triazolo[1,5-c]pyrimidine]", "values": [{"measurement": "number of Eos+ cells per nerve compared with DMSO", "setting": "Eos^+ cells", "value": "not significantly different"}, {"measurement": "olig2+ OPCs in the periphery of gpr126 mutants", "setting": "[2]; 10 μM, 36 to 72 hpf, vs DMSO, p=0.009", "value": "significant number of olig2^+ OPCs in the periphery"}, {"measurement": "MBP antibody labeling on peripheral nerves", "setting": "[2]; gpr126 mutants treated 36 to 72 hpf, fixed at 4 dpf", "value": "MBP labeling was present further distally along the nerve"}, {"measurement": "nerves with OPCs on which EGFP+ membrane tubes ensheathed most of the nerve root", "setting": "[2]; gpr126−/− mbp:egfp;olig2:dsred, imaged 72 to 86 hpf", "value": 7, "unit": "nerves"}, {"measurement": "additional nerves with OPCs already present at the beginning of the time-lapse", "setting": "[2]; [4]", "value": 3, "unit": "nerves"}, {"measurement": "nerves onto which OPCs migrated out of the spinal cord during time-lapse", "setting": "[2]; [4]", "value": 4, "unit": "nerves"}, {"measurement": "ensheathment of peripheral motor axons by nkx2.2a+/olig2+ OPCs (time-lapse)", "setting": "[2]; nkx2.2a:megfp;olig2:dsred;gpr126−/−, treated 36 to 72 hpf", "value": "initiate ensheathment of peripheral spinal motor axons"}, {"measurement": "number of peripheral olig2+ OPCs", "setting": "peripheral olig2^+ OPCs; 10 μM, p<0.01 compared to DMSO", "value": "significant numbers of peripheral olig2^+ OPCs"}, {"measurement": "peripheral OPC migration by treatment window", "setting": "peripheral olig2^+ OPCs; 10 μM, exposure beginning later than 54 hpf or ending earlier than 54 hpf, counted at 3 dpf", "value": "did not result in any peripheral OPC migration"}, {"measurement": "peripheral OPCs in WT or adora2aa−/− mutants", "setting": "peripheral olig2^+ OPCs; SCH-58261 36 to 72 hpf, olig2:dsred, treatment p<0.0001, genotype p=0.53", "value": "observed peripheral OPCs in both genotypes"}, {"measurement": "percentage of motor nerves with sox10+/olig2+ MEP glia at the MEP TZ", "setting": "MEP glia; 10 μM", "value": "no differences"}]}, {"smiles": "CCOC(=O)C1=C(C)NC(c2ccccc2)=C(C(=O)OCc2ccccc2)C1C#Cc1ccccc1", "note": "(stereo not drawn) [MRS-1191]", "values": [{"measurement": "number of peripheral olig2+ OPCs", "setting": "peripheral olig2^+ OPCs; [3]", "value": "did not observe peripheral OPCs"}]}, {"smiles": "CC1(C)[C@@H](OC(=O)CCC(=O)O)CC[C@]2(C)[C@H]3C(=O)C=C4[C@@H]5C[C@@](C)(C(=O)O)CC[C@]5(C)CC[C@@]4(C)[C@]3(C)CC[C@@H]12", "note": "[carbenoxolone]", "values": [{"measurement": "larvae that died at this dose", "setting": "larvae", "value": 9}, {"measurement": "peripherally-migrated OPCs, treatment alone versus combined with TeNT mRNA", "setting": "peripheral olig2^+ OPCs; 10 μM, 36 to 72 hpf, counted at 72 hpf, p=0.04", "value": "more peripherally-migrated OPCs"}, {"measurement": "peripherally-migrated OPCs at 3 dpf", "setting": "peripheral olig2^+ OPCs; 36 to 72 hpf, p<0.001 for 10 μM and p<0.0001 for 20 μM", "value": "significant numbers of peripherally-migrated OPCs"}]}]}
